Columns and labels:
Experiment in all cases: combination Emax (second highest fraction inhibited in the dose matrix, 72 h); higher = more inhibition; extreme values may be limits of the assay
[1] = tested on: SNU-16 (Gastric Carcinoma)
In short: (§1)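 Cell lines grown in DMEM/F12 or RPMI with 10% FBS were plated in 1536-well plates and held 24 hours at 37°C, 5% CO2 before 72 hours of exposure to two-drug dose matrices, with DMSO typically at 0.2%. CellTiter-Glo 2.0 luminescence gave viability, which was converted to inhibition. Vehicle wells were set to 0 and blank wells to 1. Combination Emax is the second-highest inhibition in the matrix, and Bliss excess is the observed combination effect minus the expected EA + EB − EA·EB, where EA and EB are the single-agent effects.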

[2] = tested on: Detroit562 (Head and Neck Carcinoma)
In short: as §1

[3] = tested on: BE-13 (T-Lymphoblastic Leukemia)
In short: as §1

[4] = tested on: SW1710 (Bladder Carcinoma)
In short: as §1

NCI-H2722 (Mesothelioma) = tested on: NCI-H2722 (Mesothelioma)
In short: as §1

[5] = tested on: BFTC-909 (Kidney Carcinoma)
In short: as §1

[6] = tested on: ESS-1 (Other Solid Carcinomas)
In short: as §1

KS-1 (Glioblastoma) = tested on: KS-1 (Glioblastoma)
In short: as §1

[7] = tested on: OVCAR-5 (Ovarian Carcinoma)
In short: as §1

[8] = tested on: LNZTA3WT4 (Low Grade Glioma)
In short: as §1

[9] = tested on: LS-123 (Colorectal Carcinoma)
In short: as §1

NCI-H2052 (Mesothelioma) = tested on: NCI-H2052 (Mesothelioma)
In short: as §1

[10] = tested on: KYAE-1 (Esophageal Adenocarcinoma)
In short: as §1

[11] = tested on: L-428 (Hodgkin's Lymphoma)
In short: as §1

[12] = tested on: MHH-CALL-2 (B-Lymphoblastic Leukemia)
In short: as §1

[13] = tested on: HuCCT1 (Biliary Tract Carcinoma)
In short: as §1

GAMG (Glioblastoma) = tested on: GAMG (Glioblastoma)
In short: as §1

BE2-M17 (Neuroblastoma) = tested on: BE2-M17 (Neuroblastoma)
In short: as §1

[14] = tested on: OV-56 (Ovarian Carcinoma)
In short: as §1

MPP-89 (Mesothelioma) = tested on: MPP-89 (Mesothelioma)
In short: as §1

SMILES	combination Emax [1]	combination Emax [2]	combination Emax [3]	combination Emax [4]	combination Emax (NCI-H2722 (Mesothelioma))	combination Emax [5]	combination Emax [6]	combination Emax (KS-1 (Glioblastoma))	combination Emax [7]	combination Emax [8]	combination Emax [9]	combination Emax (NCI-H2052 (Mesothelioma))	combination Emax [10]	combination Emax [11]	combination Emax [12]	combination Emax [13]	combination Emax (GAMG (Glioblastoma))	combination Emax (BE2-M17 (Neuroblastoma))	combination Emax [14]	combination Emax (MPP-89 (Mesothelioma))
CC(=O)Nc1cccc(-n2c(=O)n(C3CC3)c(=O)c3c(Nc4ccc(I)cc4F)n(C)c(=O)c(C)c32)c1 [Trametinib] + Cc1nc(-c2cn3c(n2)-c2ccc(-c4cnn(C(C)(C)C(N)=O)c4)cc2OCC3)n(C(C)C)n1 [Taselisib] (first compound max 1 µM, 7x7, partner max 10 µM)	0.955	0.954	0.168	0.532	0.666	0.781	0.88	0.832	0.905	0.671	0.885	0.535	0.893	0.204	0.662	0.803	0.783	0.994	0.607	0.796
CC1(C)CCC(CN2CCN(c3ccc(C(=O)NS(=O)(=O)c4ccc(NCC5CCOCC5)c([N+](=O)[O-])c4)c(Oc4cnc5[nH]ccc5c4)c3)CC2)=C(c2ccc(Cl)cc2)C1 [Venetoclax] + C1CN(CCC1(C(=O)N[C@@H](CCO)C2=CC=C(C=C2)Cl)N)C3=NC=NC4=C3C=CN4 [Capivasertib] (first compound max 1 µM, 7x7, partner max 3 µM)	0.189	0.346	0.379	0.23	0.162	0.554	0.891	0.303	0.262	0.508	0.34	0.329	0.407	0.0426	0.106	0.24	0.505	0.254	0.153	0.375
CC1(C)CCC(CN2CCN(c3ccc(C(=O)NS(=O)(=O)c4ccc(NCC5CCOCC5)c([N+](=O)[O-])c4)c(Oc4cnc5[nH]ccc5c4)c3)CC2)=C(c2ccc(Cl)cc2)C1 [Venetoclax] + C=CCn1c(=O)c2cnc(Nc3ccc(N4CCN(C)CC4)cc3)nc2n1-c1cccc(C(C)(C)O)n1 [AZD1775] (first compound max 1 µM, partner max 1 µM)	0.912	0.545	1	0.315	0.311	0.667	1	0.504	0.75	0.917	0.633	0.249	0.706	0.851	0.681	0.69	0.836	0.825	0.168	0.841
CC1(C)CCC(CN2CCN(c3ccc(C(=O)NS(=O)(=O)c4ccc(NCC5CCOCC5)c([N+](=O)[O-])c4)c(Oc4cnc5[nH]ccc5c4)c3)CC2)=C(c2ccc(Cl)cc2)C1 [Venetoclax] + CCN(CCO)CCCOc1ccc2c(Nc3cc(CC(=O)Nc4cccc(F)c4)[nH]n3)ncnc2c1 [AZD2811] (first compound max 1 µM, 7x7, partner max 1 µM)	0.523	0.52	0.881	0.248	0.23	0.215	0.977	0.341	0.315	0.487	0.162	0.181	0.163	0.296	0.292	0.217	0.598	0.515	0.195	0.284
CC1(C)CCC(CN2CCN(c3ccc(C(=O)NS(=O)(=O)c4ccc(NCC5CCOCC5)c([N+](=O)[O-])c4)c(Oc4cnc5[nH]ccc5c4)c3)CC2)=C(c2ccc(Cl)cc2)C1 [Venetoclax] + CN(C)CCCOc1ccc(-c2ccc3ncc4c(c3c2)n(C2CCOCC2)c(=O)n4C)cn1 [AZD0156] (first compound max 1 µM, 7x7, partner max 1 µM)	0.152	0.212	0.612	0.239	0.175	0.144	0.93	0.224	0.405	0.4	0.205	0.235	0.115	0.176	0.153	0.231	0.273	0.238	0.183	0.408
CC1(C)CCC(CN2CCN(c3ccc(C(=O)NS(=O)(=O)c4ccc(NCC5CCOCC5)c([N+](=O)[O-])c4)c(Oc4cnc5[nH]ccc5c4)c3)CC2)=C(c2ccc(Cl)cc2)C1 [Venetoclax] + COc1cc(Nc2ncc3c(n2)-c2ccc(Cl)cc2C(c2c(F)cccc2OC)=NC3)ccc1C(=O)O [Alisertib] (first compound max 1 µM, 7x7, partner max 10 µM)	0.955	0.754	0.918	0.306	0.281	0.502	0.957	0.635	0.335	0.472	0.385	0.425	0.128	0.363	0.733	0.365	0.662	0.901	0.225	0.566
CC1(C)CCC(CN2CCN(c3ccc(C(=O)NS(=O)(=O)c4ccc(NCC5CCOCC5)c([N+](=O)[O-])c4)c(Oc4cnc5[nH]ccc5c4)c3)CC2)=C(c2ccc(Cl)cc2)C1 [Venetoclax] + C[C@@H]1COCCN1C2=NC(=NC(=C2)C3(CC3)[S@](=N)(=O)C)C4=C5C=CNC5=NC=C4 [AZD6738] (first compound max 1 µM, 7x7, partner max 10 µM)	0.973	0.829	0.936	0.516	0.384	0.853	0.979	0.57	0.768	0.789	0.587	0.431	0.121	0.779	0.863	0.664	0.708	0.939	0.566	0.686
CC1(C)CCC(CN2CCN(c3ccc(C(=O)NS(=O)(=O)c4ccc(NCC5CCOCC5)c([N+](=O)[O-])c4)c(Oc4cnc5[nH]ccc5c4)c3)CC2)=C(c2ccc(Cl)cc2)C1 [Venetoclax] + C[C@@H](Nc1cc(F)cc(F)c1)c1cc(C(=O)N(C)C)cc2c(=O)cc(N3CCOCC3)oc12 [AZD8186] (first compound max 1 µM, 7x7, partner max 3 µM)	0.251	0.137	0.375	0.194	0.17	0.203	0.814	0.341	0.214	0.185	0.256	0.217	0.554	0.196	0.294	0.185	0.453	0.276	0.0859	0.236
CC1(C)CCC(CN2CCN(c3ccc(C(=O)NS(=O)(=O)c4ccc(NCC5CCOCC5)c([N+](=O)[O-])c4)c(Oc4cnc5[nH]ccc5c4)c3)CC2)=C(c2ccc(Cl)cc2)C1 [Venetoclax] + Cc1cc2ncnn2cc1Nc1ncc2c(n1)n(C1CCOCC1)c(=O)n2C [AZD7648] (first compound max 1 µM, 7x7, partner max 10 µM)	0.223	0.304	0.529	0.248	0.25	0.294	0.886	0.294	0.339	0.385	0.313	0.381	0.176	0.215	0.17	0.284	0.377	0.276	0.15	0.418
CC1(C)CCC(CN2CCN(c3ccc(C(=O)NS(=O)(=O)c4ccc(NCC5CCOCC5)c([N+](=O)[O-])c4)c(Oc4cnc5[nH]ccc5c4)c3)CC2)=C(c2ccc(Cl)cc2)C1 [Venetoclax] + Cn1cnc2c(F)c(Nc3ccc(Br)cc3Cl)c(C(=O)NOCCO)cc21 [Selumetinib] (first compound max 1 µM, 7x7, partner max 3 µM)	0.241	0.321	0.461	0.216	0.14	0.23	0.864	0.261	0.572	0.308	0.374	0.213	0.0726	0.137	0.482	0.38	0.157	0.635	0.108	0.159

Reference: the supplement of paper PMC11061612
